Data on six compounds can be found in article PMC8447191, “Peptide Amphiphilic-Based Supramolecular Structures with Anti-HIV-1 Activity” (Bioconjugate Chemistry, 2021).

Data set [1] has as its system HIV-1BaL. The format is cell-based. The following applies: for IC50 / IC95: HIV-1BaL, TZM-bl cells, peptide 10-0.00061 μM for 1 h at 37 °C before virus, luciferase after 48 h, sigmoid fit, mean of triplicates; for SI (CC50/IC50): ratio of CC50 (MTT assay) to IC50 (HIV-1BaL, TZM-bl cells). As for the experimental part:
HIV-1BaL[52] was provided by the NIH AIDS Research & Reference Reagent Program (http://www.aidsreagent.org/). Viral stock was prepared by passage through activated PBMCs[53] for 11 days.
Luciferase-reporter HeLa cells stably transfected to express CD4 and CCR5; TZM-bl cells[54]−[56] were grown in Dulbecco’s Minimal Essential Medium (DMEM) (Sigma-Aldrich, Inc., St. Louis, MO) containing 10% fetal calf serum (FCS), 2 mM L-glutamine, and antibiotics (100 U of penicillin/mL, 100 μg of streptomycin/mL) at 37 °C in an atmosphere containing 5% CO2.
(§1) All inhibition assays in cellular and tissue explants models were performed using a standardized amount of virus culture supernatant normalized for infectivity. TZM-bl cells were incubated with serial dilutions of peptides (from 10 μM to 0.00061 μM) for 1 h at 37 °C, prior to challenge with HIV-1BaL. Luciferase expression (r.l.u. values) was determined after 48 h. Alternatively, tissue explants were incubated with serial dilutions of peptide (from 100 μM to 0.1 μM) for 1 h before virus (10^4 TCID50/mL) was added for 2 h. Explants were then washed four times with PBS to remove unbound virus and drug. Colorectal explants were then transferred onto gelfoam rafts (Welbeck Pharmaceuticals, UK) and cultured for 15 days as described previously[57] […]. Explants were cultured for up to 15 days in the absence of peptide. Approximately 50% of the supernatants were harvested every 2–3 days and explants were re-fed with fresh media. The extent of viral replication in tissue explants was determined by measuring the p24 antigen concentration in supernatants (INNOTEST HIV antigen mAb; Fujirebio Europe, Belgium). The extent of inhibition by each peptide was calculated. The percentage of inhibition was normalized relative to the r.l.u, for TZM-bl cells, or p24, for tissue explants, values obtained for cells or explants cultured in the absence of virus (100% inhibition) and for cells or explants infected with virus in the absence of peptide (0% inhibition). Data are the mean (±SEM) of triplicates. When a dose–response curve was obtained, IC50 and, if possible, IC95 values were calculated from sigmoid curve fits (GraphPad Prism). For all curves, R^2 is >0.7.

A further data set can be described thus: MTT cytotoxicity assay. The format is cell-based. The conditions noted are these: human, HeLa-env cells, PAs coassembled with 5% FAM, 40-2.3 μM, absorbance 560 nm. As for the experimental part:
The metabolic activity of the cell line, related to the cytotoxic effect of the compounds to be tested, is measured after 24 h using the MTT assay. This assay is based on the metabolic reduction of 3-(4,5-dimethylthiazol-2-yl)-2,5-diphenyl-2H-tetrazolium bromide (MTT), carried out by the mitochondrial enzyme succinate dehydrogenase, in a colored compound of blue color (formazan) that can be monitored by absorbance spectroscopy at 560 nm, allowing determination of the mitochondrial functionality of the treated cells.
The HeLa-env cell line is seeded in 96-well plates with an initial density of 15,000 cells per well in 100 μL of culture medium (Dulbecco’s modified Eagle’s medium, DMEM, with 10% FBS added) and incubated for 24 h at 37 °C and 5% CO2 to allow their adhesion. The cell monolayers are washed with PBS, and then 100 μL of PAs formulations (peptide amphiphiles coassembled with 5% FAM) are added in a concentration range from 40 μM to 2.3 μM. The plates are kept in incubation for further 24 h.
At the end of the incubation time, the cells are incubated for 3 h with 1 mg/mL of MTT, dissolved in culture medium without FBS, to allow the formation of formazan crystals. Subsequently, 100 μL of DMSO are added to wells, stirring the plates for 30 min at room temperature to facilitate the complete dissolution of the crystals. Finally, the absorbance at 560 nm is measured in a microplate reader.
The results are expressed as relative percentage between absorbance of PA formulations against absorbance of its DMSO controls and CC50 and CC25 values are taken from dose–response curves.

Data set [2] can be described thus: Visual stability and aspect of POPC vesicles mixed with PAs (SAXS samples). The conditions noted are these: POPC 20 mM + 2 mM PA, 0.5% DMSO. Type of data set: physicochemical. As to the method:
In Figure 5A,B, we show the spectra corresponding to POPC 20 mM and POPC 20 mM + 2 mM PAs (all of them in the presence of 0.5% DMSO). The band centered at 1.2 nm^–1 and the secondary band at 3.2 nm^–1 were typical of unilamellar vesicles.[35]
The incorporation of PAs had some distinct consequences. The first and more obvious one is the distinction between stable and unstable systems.

Data set [3] concerns HIV-1BaL. Type of data set: cell-based. The conditions noted are these: colorectal tissue explants, peptide 100-0.1 μM for 1 h before and 2 h during virus (pulse, 3 h), p24 ELISA at day 15, mean (SEM) of triplicates.
Description: Human tissue explants: Surgically resected specimens of colorectal tissues were collected from HIV negative patients at St. Mary’s Hospital, Imperial College Healthcare NHS Trust, London, UK. All tissues were collected after receiving signed informed consent from all patients through the Imperial College Healthcare Tissue Bank approved by Research Ethics Committee Wales (IRAS 17/WA/0161). On arrival in the laboratory, resected tissue was cut into 2–3 mm^3 explants comprising both epithelial and muscularis mucosae as described previously.[57] Tissue explants were maintained with DMEM containing 10% fetal calf serum, 2 mM L-glutamine, and antibiotics (100 U of penicillin/mL, 100 μg of streptomycin/mL, 80 μg of gentamicin/mL) at 37 °C in an atmosphere containing 5% CO2.
as §1
In general terms: An ELISA detects its analyte on a solid surface through an enzyme-linked reagent.

On the set-up of data set [4]: method as in 2 sources, ref 31, 32 = [31]; doi:10.1007/BF02682570; Schick M. J. ( 1966 ) Micelle formation in mixtures of nonionic and cationic detergents . J. Am. Oil Chem. Soc. 43 , 681 – 682 . 10.1007/BF02682570 . || [32]; doi:10.1016/0021-9797(70)90007-X; Barry B. W.; Morrison J. C.; Russell G. F. ( 1970 ) Prediction of the critical micelle concentration of mixtures of alkyltrimethylammonium salts . J. Colloid Interface Sci. 33 , 554 – 561 . 10.1016/ ||| ref 33, 34 = [33]; PMID 17658541; doi:10.1016/j.jcis.2007.06.010; Rodríguez J. L.; Sierra M. B.; Messina P. V.; Morini M. A.; Schulz P. C.; del Burgo P.; Junquera E.; Rodríguez A.; Aicart E. ( 2007 ) Surface and bulk properties of aqueous decyltrimethylammon || [34]; PMID 25356774; doi:10.1039/C4SM01575D; Pucci C.; Pérez L.; La Mesa C.; Pons R. ( 2014 ) Characterization and stability of catanionic vesicles formed by pseudo-tetraalkyl surfactant mixtures . Soft Matter 10 , 9657 – 9667 . 10.1039/C4SM0. The following applies: cited from earlier work.

SMILES strings stand for the structures. Where two headings read alike, the source gives them in different places. *1 amine or outer side, *2 acyl side, *3 side chain or, on linkers, in order; H or OH if unused. Where a SMILES comes first, the peptide text is derived from it. Side-chain parts run from the residue outwards. The star is where a group is joined. X1 = CC(C)CCC[C@@H](C)[C@H]1CC[C@H]2[C@@H]3CC=C4C[C@@H](OC(=O)CSC[C@H](N)C(=O)*)CC[C@]4(C)[C@H]3CC[C@]12C; PEG28 = NCCOCCOCCOCCOCCOCCOCCOCCOCCOCCOCCOCCOCCOCCOCCOCCOCCOCCOCCOCCOCCOCCOCCOCCOCCOCCOCCOCCOCCC(=O)O; N(octadecyl)2 = CCCCCCCCCCCCCCCCCCN(CCCCCCCCCCCCCCCCCC)*; NHOctadecyl = CCCCCCCCCCCCCCCCCCN*; Suc = O=C(CCC(=O)[*:2])[*:1]

In the case of `CC[C@H](C)[C@H](NC(=O)[C@@H](NC(=O)CNC(=O)[C@H](CCCNC(=N)N)NC(=O)[C@H](Cc1c[nH]c2ccccc12)NC(=O)[C@H](Cc1ccccc1)NC(=O)[C@H](CC(=O)O)NC(=O)[C@H](Cc1ccccc1)NC(=O)[C@@H]1CCCN1C(=O)[C@@H](NC(=O)[C@H](CCCCN)NC(=O)[C@H](Cc1c[nH]c2ccccc12)NC(=O)[C@H](CC(C)C)NC(=O)[C@H](Cc1ccc(O)cc1)NC(=O)[C@H](CCC(=O)O)NC(=O)[C@H](CC(C)C)NC(=O)[C@@H](NC(=O)[C@@H](N)Cc1c[nH]c2ccccc12)[C@@H](C)CC)C(C)C)C(C)C)C(=O)N[C@@H](CCCCNC(=O)CCOCCOCCOCCOCCOCCOCCOCCOCCOCCOCCOCCOCCOCCOCCOCCOCCOCCOCCOCCOCCOCCOCCOCCOCCOCCOCCOCCOCCNC(=O)[C@@H](N)CSCC(=O)O[C@H]1CC[C@@]2(C)C(=CC[C@H]3[C@@H]4CC[C@H]([C@H](C)CCCC(C)C)[C@@]4(C)CC[C@@H]32)C1)C(N)=O` [C-PAchol] (H-WILEYLWKVPFDFWRGVIK([PEG28-X1])-NH2), the lamellar characteristic distance amounted to 4.9 nm. For the same compound, half-maximal inhibition in the data set with HIV-1BaL [1] (IC50) required 1.71 µM. This compound also returned a CC50 at 24 h in “MTT cytotoxicity assay” of more than 40 µM. In addition, in data set [2], the “stability / aspect of the sample” value is recorded as “bluish”.
As to `CCCCCCCCCCCCCCCCCCNC(=O)CCC(=O)NCCOCCOCCOCCOCCOCCOCCOCCOCCOCCOCCOCCOCCOCCOCCOCCOCCOCCOCCOCCOCCOCCOCCOCCOCCOCCOCCOCCOCCC(=O)NCCCC[C@H](NC(=O)[C@@H](NC(=O)[C@@H](NC(=O)CNC(=O)[C@H](CCCNC(=N)N)NC(=O)[C@H](Cc1c[nH]c2ccccc12)NC(=O)[C@H](Cc1ccccc1)NC(=O)[C@H](CC(=O)O)NC(=O)[C@H](Cc1ccccc1)NC(=O)[C@@H]1CCCN1C(=O)[C@@H](NC(=O)[C@H](CCCCN)NC(=O)[C@H](Cc1c[nH]c2ccccc12)NC(=O)[C@H](CC(C)C)NC(=O)[C@H](Cc1ccc(O)cc1)NC(=O)[C@H](CCC(=O)O)NC(=O)[C@H](CC(C)C)NC(=O)[C@@H](NC(=O)[C@@H](N)Cc1c[nH]c2ccccc12)[C@@H](C)CC)C(C)C)C(C)C)[C@@H](C)CC)C(N)=O` [C-PAmonoalkyl] (H-WILEYLWKVPFDFWRGVIK([PEG28-Suc-NHOctadecyl])-NH2), the lamellar characteristic distance came out at 4.7 nm. In the data set on HIV-1BaL [1], the IC50 was 0.08 µM, the IC95 was 5.60 µM and the “SI (CC50/IC50)” value is given as 250. In the data set with HIV-1BaL [3], inhibition was half-maximal at 3.48 µM (IC50) and the IC95 is 24.29 (3.61) μM. Also, the CC50 at 24 h in “MTT cytotoxicity assay” was 20 µM. In data set [2], the “stability / aspect of the sample” value was “bluish”.
In the case of `CCCCCCCCCCCCCCCCCCN(CCCCCCCCCCCCCCCCCC)C(=O)CCC(=O)NCCOCCOCCOCCOCCOCCOCCOCCOCCOCCOCCOCCOCCOCCOCCOCCOCCOCCOCCOCCOCCOCCOCCOCCOCCOCCOCCOCCOCCC(=O)NCCCC[C@H](NC(=O)[C@@H](NC(=O)[C@@H](NC(=O)CNC(=O)[C@H](CCCNC(=N)N)NC(=O)[C@H](Cc1c[nH]c2ccccc12)NC(=O)[C@H](Cc1ccccc1)NC(=O)[C@H](CC(=O)O)NC(=O)[C@H](Cc1ccccc1)NC(=O)[C@@H]1CCCN1C(=O)[C@@H](NC(=O)[C@H](CCCCN)NC(=O)[C@H](Cc1c[nH]c2ccccc12)NC(=O)[C@H](CC(C)C)NC(=O)[C@H](Cc1ccc(O)cc1)NC(=O)[C@H](CCC(=O)O)NC(=O)[C@H](CC(C)C)NC(=O)[C@@H](NC(=O)[C@@H](N)Cc1c[nH]c2ccccc12)[C@@H](C)CC)C(C)C)C(C)C)[C@@H](C)CC)C(N)=O` [C-PAdialkyl] (H-WILEYLWKVPFDFWRGVIK([PEG28-Suc-N(octadecyl)2])-NH2), the lamellar characteristic distance was 5.7 nm. The compound also gave a 50% cytotoxic concentration (CC50) at 24 h in the data set “MTT cytotoxicity assay” of 25 µM. In data set [2], the “stability / aspect of the sample” value is listed as “bluish”.
`CCCCCCCCCCCCCCCCCCNC(=O)CCC(=O)NCCOCCOCCOCCOCCOCCOCCOCCOCCOCCOCCOCCOCCOCCOCCOCCOCCOCCOCCOCCOCCOCCOCCOCCOCCOCCOCCOCCOCCC(=O)N[C@@H](Cc1c[nH]c2ccccc12)C(=O)N[C@H](C(=O)N[C@@H](CC(C)C)C(=O)N[C@@H](CCC(=O)O)C(=O)N[C@@H](Cc1ccc(O)cc1)C(=O)N[C@@H](CC(C)C)C(=O)N[C@@H](Cc1c[nH]c2ccccc12)C(=O)N[C@@H](CCCCN)C(=O)N[C@H](C(=O)N1CCC[C@H]1C(=O)N[C@@H](Cc1ccccc1)C(=O)N[C@@H](CC(=O)O)C(=O)N[C@@H](Cc1ccccc1)C(=O)N[C@@H](Cc1c[nH]c2ccccc12)C(=O)N[C@@H](CCCNC(=N)N)C(=O)NCC(=O)N[C@H](C(=O)N[C@H](C(N)=O)[C@@H](C)CC)C(C)C)C(C)C)[C@@H](C)CC` [N-PAmonoalkyl] ({NHOctadecyl-Suc-PEG28}-WILEYLWKVPFDFWRGVI-NH2): in the data set with HIV-1BaL [1], the 50% inhibitory concentration (IC50) was 0.2 µM, the IC95 is 5.87 µM and the “SI (CC50/IC50)” value is 85. Further, in the data set on HIV-1BaL [3], inhibition was half-maximal at 0.28 µM (IC50) and the IC95 is 2.53 (1.14) μM. This compound also returned a CC50 at 24 h in “MTT cytotoxicity assay” of 17 µM. Besides, the “stability / aspect of the sample” value in data set [2] is “precipitated rather fast and made compact flocks”.
Turning to `CCCCCCCCCC[N+](C)(C)C.[Br-]` [decyl trimethyl ammonium bromide], the CMC in data set [4] is reported as 66.8 mM.
Consider `CCCCCCCCCCCCCCCC[N+](C)(C)C` [hexadecyl trimethyl ammonium bromide], for which the CMC in data set [4] is on record as 0.8 mM.

The IC50 is the point on the concentration scale where inhibition reaches its midpoint. A low value points to greater potency in that assay. For orientation: CC50 means the concentration that lowers cell viability or growth by half. A low value points to greater toxicity to the cells.
